≈ marks a conversion by molar mass, not a printed value. Read-outs that look alike come from different tables or passages of the source. Blank lines part the entries; values can stand above or below the molecule they belong to.
How the values were obtained:
Format in all cases: cell-based
[1] = test system: Aspergillus brasiliensis; test: MIC and Kull synergy index of 1,2-/2,3-alkanediol mixtures
[2] = test system: human sebaceous glands; test: Sebum production of micro-dissected, cultured human sebaceous glands (lipids/proteins after six days); set-up: sebum reduction: concentration or dose not given beside the values; conditions: for sebum reduction: compared to untreated control, six days, single donor (FIG. 4)
Description: Additional tests were performed with human sebaceous glands in order to verify the modulatory activity of different 1,2-alkanediols and 2,3-alkanediols on sebum secretion. Several microbial species on the skin are lipid dependent and feed on the human sebum (e.g. Corynebacterium, Propionibacterium). Accordingly, sebum reduction can indirectly support the reduction of microorganisms on the skin and in this way also indirectly support e.g. dandruff or acne reduction.
For these experiments sebaceous glands had been micro-dissected and cultured with medium. The medium without any supplement served as untreated control. Medium with 5 μM Capsaicin served as positive control. Additionally, culture medium was supplemented with different concentrations of alkanediols. After six days the sebaceous glands were collected and lipids and proteins quantified. The total lipid amount being representative of sebum production was obtained by normalizing the quantified lipids upon the quantified proteins (i.e. mg of lipids/mg of proteins).

[3] = test system: Escherichia coli (EC); test: Preservation efficacy test (PET), European Pharmacopoeia 5.1.3
Description: (§1) The preservation efficacy test (PET) was performed in accordance with European Pharmacopoeia § 5.1.3: The test is a reference European Pharmacopoeia method, that is to be used to evaluate the preservation system of a cosmetic or pharmaceutical preparation. The test consists of challenging the preparation under test, with prescribed inoculums of suitable microorganisms. The preservation porperties of the preparation are adequate if, in the conditions of the test, there is a significant fall or no increase, as appropriate, in the number of microorganisms in the inoculated preparations after the time prescribed.
(§2) The test microorganisms which were used, are the following:
(§3) Pseudomonas aeruginosa (PA) (bacterium); Staphylococcus aureus (SA) (bacterium); Escherichia coli (EC) (bacterium); Candida albicans (CA) (yeast); and Aspergillus brasiliensis (AB) (fungus).

[4] = test system: Pseudomonas aeruginosa (PA); test: as above
Description: as §1, §2, §3

[5] = test system: Candida albicans (CA); test: as above
Description: as §1, §2, §3

[6] = test system: Staphylococcus aureus (SA); test: as above
Description: as §1, §2, §3

[7] = test system: Aspergillus brasiliensis (AB); test: as above
Description: as §1, §2, §3

[8] = test system: Anaerococcus octavius; test: MIC test (growth inhibition, 96 well plates, OD)
Description: (§4) The MIC test is a test on growth inhibition. Estimation of Minimum Inhibitory Concentration (MIC) is executed in 96 well plates. Through the comparison of bacterial growth with positive and negative controls via optical density (OD), different concentrations of given test substances are evaluated.
(§5) Bacteria are cultivated under adjusted conditions based on information of the German Collection of Microorganisms and Cell Cultures (DSMZ) and stored in 50% Glycerol prior to use. Afterwards, the following method was applied: Adding growth medium (according to microorganism) to each well of the microplate. Adding the test-substances in different concentrations, positive controls (water controls only with medium) and negative controls (benchmarks according to organism). Adding the microorganism in a concentration of 10^6 CFU/ml (CFU=colony forming units). Incubation of the microplates at appropriate conditions.
(§6) According to resulting growth, substance concentrations are labelled either as inhibiting or not and MIC is defined as the lowest concentration where a complete growth inhibition is visible. Experiments at concentration limits (highest concentration labelled as growth and lowest concentration labelled as inhibiting) are performed at least twice.

[9] = test system: Staphylococcus epidermidis; test: MIC test (growth inhibition, 96 well plates, OD)
Description: as §4, §5, §6

[10] = test system: Candida albicans; test: MIC test (growth inhibition, 96 well plates, OD); conditions: read-out: Minimum Inhibitory Concentration (MIC)
Description: as §4, §5, §6

[11] = test system: Propionibacterium acnes; test: MIC test (growth inhibition, 96 well plates, OD); conditions: Cutibacterium acnes; read-out: Minimum Inhibitory Concentration (MIC)
Description: as §4, §5, §6

[12] = test system: Corynebacterium xerosis; test: MIC test (growth inhibition, 96 well plates, OD)
Description: as §4, §5, §6

[13] = test system: Aspergillus niger; test: MIC test (growth inhibition, 96 well plates, OD)
Description: as §4, §5, §6

[14] = test system: Staphylococcus hominis; test: MIC test (growth inhibition, 96 well plates, OD); conditions: read-out: Minimum Inhibitory Concentration (MIC)
Description: as §4, §5, §6

[15] = test system: Escherichia coli; test: MIC test (growth inhibition, 96 well plates, OD); conditions: read-out: Minimum Inhibitory Concentration (MIC)
Description: as §4, §5, §6

[16] = test system: Staphylococcus aureus; test: MIC test (growth inhibition, 96 well plates, OD); conditions: read-out: Minimum Inhibitory Concentration (MIC)
Description: as §4, §5, §6

[17] = test system: Corynebacterium jeikeium; test: MIC test (growth inhibition, 96 well plates, OD); conditions: read-out: Minimum Inhibitory Concentration (MIC)
Description: as §4, §5, §6

MIC ([1]; single 1,2-alkanediol, read-out: MIC Component A): 500 µg/mL
MIC [8]: 1000 µg/mL (≈ 6.24 mM)
MIC [9]: 1000 µg/mL (≈ 6.24 mM)
MIC [10]: 1000 µg/mL (≈ 6.24 mM)
MIC [11]: 1000 µg/mL (≈ 6.24 mM)
MIC [12]: 2500 µg/mL (≈ 15.6 mM)
MIC [13]: 2500 µg/mL (≈ 15.6 mM)
MIC [14]: 1000 µg/mL (≈ 6.24 mM)
MIC [15]: 500 µg/mL (≈ 3.12 mM)
MIC [16]: 1000 µg/mL (≈ 6.24 mM)
MIC [17]: 2500 µg/mL (≈ 15.6 mM)
SMILES: CCCCCCCC(O)CO (centres unmarked) [1,2-nonanediol]
sebum reduction [2]: 28%
concentration dependency of sebum reduction (in words) ([2]; different donor (FIG. 5)): experimentally confirmed
number of microorganisms after 2 days ([3]; 0.1% in o/w emulsion): 6,700
number of microorganisms after 7 days ([3]; 0.1% in o/w emulsion): 1
number of microorganisms after 14 days ([3]; 0.1% in o/w emulsion): 1
number of microorganisms after 28 days ([3]; 0.1% in o/w emulsion): 1
number of microorganisms after 2 days ([4]; 0.1% in o/w emulsion): 1
number of microorganisms after 7 days ([4]; 0.1% in o/w emulsion): 1
number of microorganisms after 14 days ([4]; 0.1% in o/w emulsion): 1
number of microorganisms after 28 days ([4]; 0.1% in o/w emulsion): 1
number of microorganisms after 2 days ([5]; 0.1% in o/w emulsion): 1,600,000
number of microorganisms after 7 days ([5]; 0.1% in o/w emulsion): 120,000
number of microorganisms after 14 days ([5]; 0.1% in o/w emulsion): 890
number of microorganisms after 28 days ([5]; 0.1% in o/w emulsion): 1
number of microorganisms after 2 days ([6]; 0.1% in o/w emulsion): 2,300
number of microorganisms after 7 days ([6]; 0.1% in o/w emulsion): 1
number of microorganisms after 14 days ([6]; 0.1% in o/w emulsion): 1
number of microorganisms after 28 days ([6]; 0.1% in o/w emulsion): 1
number of microorganisms after 2 days ([7]; 0.1% in o/w emulsion): 2,300,000
number of microorganisms after 7 days ([7]; 0.1% in o/w emulsion): 1,300,000
number of microorganisms after 14 days ([7]; 0.1% in o/w emulsion): 1,200,000
number of microorganisms after 28 days ([7]; 0.1% in o/w emulsion): 900,000

MIC ([1]; single 2,3-alkanediol, read-out: MIC Component B): 1000 µg/mL
MIC [10]: 2500 µg/mL (≈ 15.6 mM)
MIC [11]: 2500 µg/mL (≈ 15.6 mM)
MIC [14]: 5000 µg/mL (≈ 31.2 mM)
MIC [15]: 1000 µg/mL (≈ 6.24 mM)
MIC [16]: 2500 µg/mL (≈ 15.6 mM)
MIC [17]: 2500 µg/mL (≈ 15.6 mM)
SMILES: CCCCCCC(O)C(C)O (centres unmarked) [2,3-nonanediol]
sebum reduction [2]: 41%
number of microorganisms after 2 days ([3]; 0.1% in o/w emulsion): 810,000
number of microorganisms after 7 days ([3]; 0.1% in o/w emulsion): 27,000
number of microorganisms after 14 days ([3]; 0.1% in o/w emulsion): 1,100
number of microorganisms after 28 days ([3]; 0.1% in o/w emulsion): 1
number of microorganisms after 2 days ([3]; 0.1% in shampoo): 2,300,000
number of microorganisms after 7 days ([3]; 0.1% in shampoo): 4,200,000
number of microorganisms after 14 days ([3]; 0.1% in shampoo): 1,800,000
number of microorganisms after 28 days ([3]; 0.1% in shampoo): 1,100,000
number of microorganisms after 2 days ([3]; 0.4% in shampoo): 3,200,000
number of microorganisms after 7 days ([3]; 0.4% in shampoo): 4,200,000
number of microorganisms after 14 days ([3]; 0.4% in shampoo): 1,300,000
number of microorganisms after 28 days ([3]; 0.4% in shampoo): 1,400,000
number of microorganisms after 2 days ([4]; 0.1% in o/w emulsion): 1
number of microorganisms after 7 days ([4]; 0.1% in o/w emulsion): 1
number of microorganisms after 14 days ([4]; 0.1% in o/w emulsion): 1
number of microorganisms after 28 days ([4]; 0.1% in o/w emulsion): 1
number of microorganisms after 2 days ([4]; 0.1% in shampoo): 160,000
number of microorganisms after 7 days ([4]; 0.1% in shampoo): 2,000,000
number of microorganisms after 14 days ([4]; 0.1% in shampoo): 10,000,000
number of microorganisms after 28 days ([4]; 0.1% in shampoo): 8,800,000
number of microorganisms after 2 days ([4]; 0.4% in shampoo): 17,000
number of microorganisms after 7 days ([4]; 0.4% in shampoo): 1
number of microorganisms after 14 days ([4]; 0.4% in shampoo): 1
number of microorganisms after 28 days ([4]; 0.4% in shampoo): 1
number of microorganisms after 2 days ([5]; 0.1% in o/w emulsion): 2,000,000
number of microorganisms after 7 days ([5]; 0.1% in o/w emulsion): 2,500,000
number of microorganisms after 14 days ([5]; 0.1% in o/w emulsion): 1,900,000
number of microorganisms after 28 days ([5]; 0.1% in o/w emulsion): 970,000
number of microorganisms after 2 days ([5]; 0.1% in shampoo): 110,000
number of microorganisms after 7 days ([5]; 0.1% in shampoo): 29,000
number of microorganisms after 14 days ([5]; 0.1% in shampoo): 870
number of microorganisms after 28 days ([5]; 0.1% in shampoo): 1
number of microorganisms after 2 days ([5]; 0.4% in shampoo): 68,000
number of microorganisms after 7 days ([5]; 0.4% in shampoo): 14,000
number of microorganisms after 14 days ([5]; 0.4% in shampoo): 690
number of microorganisms after 28 days ([5]; 0.4% in shampoo): 1
number of microorganisms after 2 days ([6]; 0.1% in o/w emulsion): 2,200,000
number of microorganisms after 7 days ([6]; 0.1% in o/w emulsion): 66,000
number of microorganisms after 14 days ([6]; 0.1% in o/w emulsion): 1
number of microorganisms after 28 days ([6]; 0.1% in o/w emulsion): 1
number of microorganisms after 2 days ([6]; 0.1% in shampoo): 31,000
number of microorganisms after 7 days ([6]; 0.1% in shampoo): 200
number of microorganisms after 14 days ([6]; 0.1% in shampoo): 1
number of microorganisms after 28 days ([6]; 0.1% in shampoo): 1
number of microorganisms after 2 days ([6]; 0.4% in shampoo): 1,800
number of microorganisms after 7 days ([6]; 0.4% in shampoo): 1
number of microorganisms after 14 days ([6]; 0.4% in shampoo): 1
number of microorganisms after 28 days ([6]; 0.4% in shampoo): 1
number of microorganisms after 2 days ([7]; 0.1% in o/w emulsion): 1,200,000
number of microorganisms after 7 days ([7]; 0.1% in o/w emulsion): 1,100,000
number of microorganisms after 14 days ([7]; 0.1% in o/w emulsion): 890,000
number of microorganisms after 28 days ([7]; 0.1% in o/w emulsion): 1,100,000
number of microorganisms after 2 days ([7]; 0.1% in shampoo): 1,800,000
number of microorganisms after 7 days ([7]; 0.1% in shampoo): 2,000,000
number of microorganisms after 14 days ([7]; 0.1% in shampoo): 680,000
number of microorganisms after 28 days ([7]; 0.1% in shampoo): 530,000
number of microorganisms after 2 days ([7]; 0.4% in shampoo): 2,100,000
number of microorganisms after 7 days ([7]; 0.4% in shampoo): 1,800,000
number of microorganisms after 14 days ([7]; 0.4% in shampoo): 1,200,000
number of microorganisms after 28 days ([7]; 0.4% in shampoo): 1,100,000

Reference: US20230248626A1, “Compositions Comprising (Bio)-Alkanediols” (Symrise AG, priority 0001, published 2023)
